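These data come from cells grown in 96-well plates and exposed to compound for 48 hours at five concentrations. GI50 = concentration required for 50% inhibition of growth.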 Activity calls are given as the source filed them. Cut-off read from the data, not from the text of the source: active = GI50 up to about 1.1 µM and inactive = higher.
Columns and labels:
Test in all cases: growth of human tumour cells (NCI), 48 h
HT-29 = test system: HT-29
NCI-H522 = test system: NCI-H522
NCI-H460 = test system: NCI-H460
KM12 = test system: KM12
LOX IMVI = test system: LOX IMVI
COLO 205 = test system: COLO 205
TK-10 = test system: TK-10
CCRF-CEM = test system: CCRF-CEM
M14 = test system: M14
OVCAR-8 = test system: OVCAR-8
Malme-3M = test system: Malme-3M
HCT-116 = test system: HCT-116
MCF7 = test system: MCF7
BT-549 = test system: BT-549
T47D = test system: T47D
MDA-MB-435 = test system: MDA-MB-435
Hs-578T = test system: Hs-578T
MDA-MB-231 = test system: MDA-MB-231
DU-145 = test system: DU-145
MDA-N = test system: MDA-N

Row | Structure (SMILES) | GI50 (HT-29) | GI50 (NCI-H522) | GI50 (NCI-H460) | GI50 (KM12) | GI50 (LOX IMVI) | GI50 (COLO 205) | GI50 (TK-10) | GI50 (CCRF-CEM) | GI50 (M14) | GI50 (OVCAR-8) | GI50 (Malme-3M) | GI50 (HCT-116) | GI50 (MCF7) | GI50 (BT-549) | GI50 (T47D) | GI50 (MDA-MB-435) | GI50 (Hs-578T) | GI50 (MDA-MB-231) | GI50 (DU-145) | GI50 (MDA-N)
1 | O=c1c2cc3c(cc2c2cccc4c2n1CCC4)OCO3 | 51.1 µM (inactive) | 16.2 µM (inactive) | 37.1 µM (inactive) | 33.3 µM (inactive) | 42.9 µM (inactive) | 26.3 µM (inactive) | 27.1 µM (inactive) | 89.3 µM (inactive) | 46.9 µM (inactive) | 48.1 µM (inactive) | 86.1 µM (inactive) | 23.4 µM (inactive) | – | – | – | – | – | – | – | –
2 | COc1ccc(CCCCl)c(C2=NCCc3cc(OC)c(OC)cc32)c1 | 36.1 µM (inactive) | 28.8 µM (inactive) | 37.8 µM (inactive) | 38.8 µM (inactive) | – | 25.7 µM (inactive) | > 100 µM (inactive) | 92.5 µM (inactive) | 43.9 µM (inactive) | 25.6 µM (inactive) | – | 33 µM (inactive) | 41.5 µM (inactive) | 37.8 µM (inactive) | 46.1 µM (inactive) | 35.6 µM (inactive) | 32.7 µM (inactive) | 69.3 µM (inactive) | > 100 µM (inactive) | –
3 | C=CCc1cccc(C(=O)/C=C(O)/C=C/c2ccccc2Cl)c1O | 9.93 µM (inactive) | 11.2 µM (inactive) | 24.9 µM (inactive) | 17.2 µM (inactive) | 7.01 µM (inactive) | 25.1 µM (inactive) | 42.7 µM (inactive) | 6.82 µM (inactive) | 24.5 µM (inactive) | 6.04 µM (inactive) | – | 7.29 µM (inactive) | 13.2 µM (inactive) | 37.4 µM (inactive) | 9.48 µM (inactive) | 12.4 µM (inactive) | – | 36.7 µM (inactive) | 15.1 µM (inactive) | 27.7 µM (inactive)
4 | Cc1ccc(Cl)c2c1NC(=O)/C2=N\Nc1ccccc1[N+](=O)[O-] | 35.8 µM (inactive) | – | 30.4 µM (inactive) | 23.8 µM (inactive) | 25.6 µM (inactive) | 46.3 µM (inactive) | > 100 µM (inactive) | 24.5 µM (inactive) | 42.6 µM (inactive) | 39.7 µM (inactive) | 42.7 µM (inactive) | 36.3 µM (inactive) | 36.3 µM (inactive) | – | 44.3 µM (inactive) | 15.7 µM (inactive) | 22.4 µM (inactive) | 75 µM (inactive) | 47.1 µM (inactive) | 39.4 µM (inactive)
5 | [O-][n+]1onc(-c2ccccc2)c1-c1no[n+]([O-])c1-c1c(-c2ccccc2)no[n+]1[O-] | 3.62 µM (inactive) | 18.8 µM (inactive) | 3.27 µM (inactive) | 7.43 µM (inactive) | 2.82 µM (inactive) | 6.37 µM (inactive) | 44.5 µM (inactive) | 5.18 µM (inactive) | 12.1 µM (inactive) | 24.1 µM (inactive) | 20.4 µM (inactive) | 3.3 µM (inactive) | 3.23 µM (inactive) | – | – | 2.34 µM (inactive) | 54.1 µM (inactive) | 15.8 µM (inactive) | 9.89 µM (inactive) | 2.58 µM (inactive)
6 | CNC1c2ccccc2C(=O)c2cc3c(cc21)OCCOCCOCCOCCO3 (centres undefined) | 54 µM (inactive) | 34.1 µM (inactive) | > 100 µM (inactive) | > 100 µM (inactive) | – | > 100 µM (inactive) | > 100 µM (inactive) | 17.1 µM (inactive) | > 100 µM (inactive) | > 100 µM (inactive) | – | > 100 µM (inactive) | 55.5 µM (inactive) | – | > 100 µM (inactive) | > 100 µM (inactive) | > 100 µM (inactive) | 82.2 µM (inactive) | – | 96.8 µM (inactive)
7 | CN1CCc2ccccc2C(C(=O)c2ccc3c(c2)OCO3)C1=O (centres undefined) | > 100 µM (inactive) | > 100 µM (inactive) | > 100 µM (inactive) | > 100 µM (inactive) | > 100 µM (inactive) | > 100 µM (inactive) | > 100 µM (inactive) | > 100 µM (inactive) | > 100 µM (inactive) | > 100 µM (inactive) | > 100 µM (inactive) | > 100 µM (inactive) | – | – | – | – | – | – | – | –
8 | O=C(/C=N/O)c1c(-c2ccccc2)[nH]c(-c2ccccc2)c1-c1ccccc1 | 21.9 µM (inactive) | 13.8 µM (inactive) | 16.7 µM (inactive) | 13.6 µM (inactive) | 10.8 µM (inactive) | 17.2 µM (inactive) | 21.3 µM (inactive) | 16.6 µM (inactive) | 31 µM (inactive) | – | 18.3 µM (inactive) | 26.2 µM (inactive) | 15.6 µM (inactive) | < 0.01 µM (active) | 17.1 µM (inactive) | 14.4 µM (inactive) | 20.9 µM (inactive) | 13.3 µM (inactive) | 0.927 µM (active) | –
9 | O=C(CCc1nnc2s/c(=C\c3ccc(Cl)cc3Cl)c(=O)n12)Nc1cc(Cl)c(Cl)cc1Cl | > 10 µM (inactive) | 2.31 µM (inactive) | > 10 µM (inactive) | > 10 µM (inactive) | > 10 µM (inactive) | > 10 µM (inactive) | 55.7 µM (inactive) | > 10 µM (inactive) | > 10 µM (inactive) | > 10 µM (inactive) | > 10 µM (inactive) | > 10 µM (inactive) | – | – | – | – | – | – | – | –
10 | CCOC(=O)CNC(SC)=C(C#N)C#N | > 100 µM (inactive) | > 100 µM (inactive) | > 100 µM (inactive) | > 100 µM (inactive) | > 100 µM (inactive) | > 100 µM (inactive) | > 100 µM (inactive) | > 100 µM (inactive) | > 100 µM (inactive) | > 100 µM (inactive) | > 100 µM (inactive) | > 100 µM (inactive) | – | – | – | – | – | – | – | –
11 | Cn1c(=O)sc2cc(C(=S)N3CCCCC3)ccc21 | > 100 µM (inactive) | – | > 100 µM (inactive) | > 100 µM (inactive) | 81.5 µM (inactive) | 57.9 µM (inactive) | > 100 µM (inactive) | 16.5 µM (inactive) | > 100 µM (inactive) | 25.4 µM (inactive) | 0.865 µM (active) | 89.7 µM (inactive) | > 100 µM (inactive) | 66.4 µM (inactive) | – | > 100 µM (inactive) | 30.8 µM (inactive) | 45.9 µM (inactive) | > 100 µM (inactive) | > 100 µM (inactive)
12 | CCOC(=O)NNC(=O)NC12CC3CC(CC(C3)C1)C2 | > 100 µM (inactive) | > 100 µM (inactive) | > 100 µM (inactive) | > 100 µM (inactive) | > 100 µM (inactive) | > 100 µM (inactive) | > 100 µM (inactive) | > 100 µM (inactive) | > 100 µM (inactive) | > 100 µM (inactive) | > 100 µM (inactive) | > 100 µM (inactive) | – | – | – | – | – | – | – | –
13 | CCCNC(=S)N/C=C1/C(=O)Oc2ccccc2C1=O | > 100 µM (inactive) | > 100 µM (inactive) | > 100 µM (inactive) | > 100 µM (inactive) | > 100 µM (inactive) | > 100 µM (inactive) | > 100 µM (inactive) | > 100 µM (inactive) | > 100 µM (inactive) | > 100 µM (inactive) | 63.7 µM (inactive) | > 100 µM (inactive) | > 100 µM (inactive) | > 100 µM (inactive) | – | > 100 µM (inactive) | 50.4 µM (inactive) | > 100 µM (inactive) | 54.1 µM (inactive) | > 100 µM (inactive)
14 | COc1ccc(NC(=O)c2oc3cc(O)ccc3c(=O)c2C)c([N+](=O)[O-])c1 | > 100 µM (inactive) | > 100 µM (inactive) | > 100 µM (inactive) | > 100 µM (inactive) | > 100 µM (inactive) | > 100 µM (inactive) | > 100 µM (inactive) | > 100 µM (inactive) | > 100 µM (inactive) | > 100 µM (inactive) | > 100 µM (inactive) | > 100 µM (inactive) | – | – | – | – | – | – | – | –
15 | CC(=O)Nc1ccc(C2[C@H]3C(=O)N(c4ccc(Cc5ccc(N6C(=O)[C@@H]7ON(c8ccccc8)C(c8ccc(NC(C)=O)cc8)[C@@H]7C6=O)cc5)cc4)C(=O)[C@H]3ON2c2ccccc2)cc1 (some centres undefined) | > 100 µM (inactive) | > 100 µM (inactive) | > 100 µM (inactive) | > 100 µM (inactive) | > 100 µM (inactive) | 74.6 µM (inactive) | > 100 µM (inactive) | > 100 µM (inactive) | 25.2 µM (inactive) | > 100 µM (inactive) | > 100 µM (inactive) | > 100 µM (inactive) | – | – | – | – | – | – | – | –
16 | COc1cc2noc(-c3ccccc3)c2cc1OC | 36.6 µM (inactive) | 36.4 µM (inactive) | 42.4 µM (inactive) | 29 µM (inactive) | 40.6 µM (inactive) | 55.3 µM (inactive) | 80.9 µM (inactive) | 42.5 µM (inactive) | 55.6 µM (inactive) | 64.4 µM (inactive) | > 100 µM (inactive) | 60.1 µM (inactive) | – | – | – | – | – | – | – | –
17 | COc1cc(/C=C2\CCc3ccccc3C2=O)cc(OC)c1OC | 17.5 µM (inactive) | 14.8 µM (inactive) | 16.9 µM (inactive) | 13.6 µM (inactive) | 11.9 µM (inactive) | 17 µM (inactive) | 17.8 µM (inactive) | 4.89 µM (inactive) | 16.2 µM (inactive) | 16.2 µM (inactive) | 16.4 µM (inactive) | 14.1 µM (inactive) | – | – | – | – | – | – | – | –
18 | COc1ccc(/C(C#N)=C/c2ccc(OC)c(OC)c2)cc1 | > 100 µM (inactive) | > 100 µM (inactive) | > 100 µM (inactive) | > 100 µM (inactive) | > 100 µM (inactive) | > 100 µM (inactive) | > 100 µM (inactive) | > 100 µM (inactive) | > 100 µM (inactive) | > 100 µM (inactive) | > 100 µM (inactive) | > 100 µM (inactive) | > 100 µM (inactive) | – | 49.5 µM (inactive) | 83.4 µM (inactive) | > 100 µM (inactive) | > 100 µM (inactive) | > 100 µM (inactive) | > 100 µM (inactive)
